The record followed here is US9375013B2, “Herbicidal composition” (ISHIHARA SANGYO KAISHA, LTD., priority 2013, dated 2016).

Each structure is given as a SMILES string.

Assay type in all cases: in vivo
For experiment [1], the system named is wild oat (Avena fatua L.). As to the kind of experiment: Test Example 3: pot soil treatment, growth inhibition of wild oat. Particulars: 22nd day after treatment, read-out: Growth inhibition rate (%) of wild oat, Measured value. From the text: (§1) On the 14th day after treatment, the state of growth of the summergrass was visually observed to determine the growth inhibition rate in accordance with the following evaluation standard. The growth inhibition rate (%) (measured value) and the growth inhibition rate (%) (calculated value) calculated by the Colby's formula are shown in Table 1. Growth inhibition rate (%)=0 (equivalent to the non-treated area) to 100 (complete kill) Upland field soil was put into a 1/160,000 ha pot, and seeds of wild oat (Avena fatua L.) were sown. On the next day, predetermined amounts of flazasulfuron, mesotrione and imazapic were diluted with water (in an amount corresponding to 300 L/ha), and applied for soil treatment by a small sprayer. On the 22nd day after treatment, the state of growth of the wild oat was visually observed to determine the growth inhibition rate. The growth inhibition rate (%) (measured value) and the growth inhibition rate (%) calculated in the same manner as in Test Example 1 are shown in Table 3.

Experiment [2] concerns guinea grass (Panicum maximum Jacq.). As to the kind of experiment: Test Example 4: pot soil treatment, growth inhibition of guinea grass. Particulars: Megathyrsus maximus, dose 200 g/ha, 22nd day after treatment, read-out: Growth inhibition rate (%) of guinea grass, Measured value.
Excerpt: as §1, with “guinea grass (Panicum maximum Jacq.)” for “wild oat (Avena fatua L.)”, “flazasulfuron and” for “flazasulfuron,”, “mesotrione” for “mesotrione and imazapic”, “guinea grass” for “wild oat”, “4.” for “3.”

Experiment [3] concerns field bindweed (Convolvulus arvensis L.). As to the kind of experiment: Test Example 15: pot soil treatment, growth inhibition of field bindweed. Particulars: 21st day after treatment, read-out: Growth inhibition rate (%) of field bindweed, Measured value.
Excerpt: as §1, with “field bindweed (Convolvulus arvensis” for “wild oat (Avena fatua”, “21st” for “22nd”, “field bindweed” for “wild oat”, “15.” for “3.”

Experiment [4] has as its system rostrate sesbania(Sesbania rostrata Bremek. & Oberm.). As to the kind of experiment: Test Example 7: pot soil treatment, growth inhibition of rostrate sesbania. The settings on record: 22nd day after treatment, read-out: Growth inhibition rate (%) of rostrate sesbania, Measured value.
For experiment [5], the system named is velvetleaf (Abutilon theophrasti MEDIC.). As to the kind of experiment: Test Example 13: pot soil treatment, growth inhibition of velvetleaf. The settings on record: dose 50 g/ha, 21st day after treatment, read-out: Growth inhibition rate (%) of velvetleaf, Measured value.
In experiment [6] the test system is common ragweed (Ambrosia artemisiifolia L.). As to the kind of experiment: Test Example 11: pot soil treatment, growth inhibition of common ragweed. The settings on record: dose 150 g/ha, 21st day after treatment, read-out: Growth inhibition rate (%) of common ragweed, Measured value.
Excerpt: as §1, with “common ragweed (Ambrosia artemisiifolia” for “wild oat (Avena fatua”, “flazasulfuron” for “flazasulfuron, mesotrione”, “21st” for “22nd”, “common ragweed” for “wild oat”, “11.” for “3.”

For experiment [7], the system named is common lespedeza (Lespedeza striata (Thunb.) Hook. et Arn.). As to the kind of experiment: Test Example 12: pot soil treatment, growth inhibition of common lespedeza. Particulars: Kummerowia striata, dose 50 g/ha, 21st day after treatment, read-out: Growth inhibition rate (%) of common lespedeza, Measured value.
Excerpt: as §1, with “common lespedeza (Lespedeza striata (Thunb.) Hook. et Arn.)” for “wild oat (Avena fatua L.)”, “flazasulfuron” for “flazasulfuron, mesotrione”, “21st” for “22nd”, “common lespedeza” for “wild oat”, “12.” for “3.”

Experiment [8] deals with persian speedwell (Veronica persica Poir.). As to the kind of experiment: Test Example 8: pot soil treatment, growth inhibition of persian speedwell. Particulars: 21st day after treatment, read-out: Growth inhibition rate (%) of persian speedwell, Measured value.
Experiment [9] concerns summergrass (Digitaria ciliaris (Retz.) Koeler). As to the kind of experiment: Test Example 1: pot soil treatment, growth inhibition of summergrass. The settings on record: dose 150 g/ha, 14th day after treatment, read-out: Growth inhibition rate (%) of summergrass, Measured value. How it is done: Upland field soil was put into a 1/160,000 ha pot, and seeds of summergrass (Digitaria ciliaris (Retz.) Koeler) were sown. On the next day, predetermined amounts of flazasulfuron and imazapic were diluted with water (in an amount corresponding to 300 L/ha), and applied for soil treatment by a small sprayer. On the 14th day after treatment, the state of growth of the summergrass was visually observed to determine the growth inhibition rate in accordance with the following evaluation standard. The growth inhibition rate (%) (measured value) and the growth inhibition rate (%) (calculated value) calculated by the Colby's formula are shown in Table 1. Growth inhibition rate (%)=0 (equivalent to the non-treated area) to 100 (complete kill)

`CS(=O)(=O)c1ccc(C(=O)C2C(=O)CCCC2=O)c([N+](=O)[O-])c1` [Mesotrione, mesotrione]: the inhibition (commonly the change of the read-out against control, counted positive when it falls) at 50 g/ha in experiment [1] (dose 50 g/ha) stood at 40%; in [4] it was 15%. Moreover, the inhibition at 200 g/ha was determined as 0% in experiment [1] (dose 200 g/ha), 0% in experiment [2] and 60% in experiment [3] (dose 200 g/ha).
As for `Cc1cnc(C2=NC(=O)C(C)(C(C)C)N2)c(C(=O)O)c1` (stereo not shown) [Imazapic, imazapic], the figures for the inhibition at 50 g/ha in [5], in [7] and in experiment [8] were 30%, 0% and 50%, respectively. In experiment [1] (dose 100 g/ha), the inhibition at 100 g/ha worked out at 40%. In addition, the inhibition at 150 g/ha in [1] (dose 150 g/ha) was found to be 60%; in [6], 60%; in [3] (dose 150 g/ha) it was 15%; in experiment [9], 50%.
